The subject of series [1] is normal cells MCF10A. Briefly: Cytotoxicity analysis (WST-1), normal cells MCF10A. The note with it: for Cytotoxicity in normal cells: 1 μM, 5 μM, 10 μM, 48 hours, WST-1, FIG. 2; for Growth of normal cells: FIG. 2. The class given is cell-based. As for the experimental part:
(§1) In order to verify cytotoxicity of CG-608 to CG-610 and CG-613 to CG-618 prepared in Examples 1 to 9, human colon cancer cell line DLD-1 cells (ATCC-CCL-221), pancreatic cancer cell line AsPc-1 cells (ATCC-CRL-1682), and normal cells MCF10A (ATCC-CRL-10317) were cultured in an RPMI medium containing 10% bovine fetal serum (FBS) while maintaining 37° C. and 5% CO2, and then the cells were detached using a 0.05% trypsin-EDTA. 4×10^3 cells calculated by a hematocytometer were inoculated in each well of a 96-well plate containing a 10% FBS containing medium and cultured in a 37° C. incubator containing 5% C2.
(§2) After 24 hours, the medium of each well was exchanged to a new medium containing a control group (0.1% DMSO) and CG-609 prepared in Example 1 or CG-618 prepared in Example 9 as a representative benproperine derivative at concentrations of 1 μM, 5 μM, and 10 μM. Thereafter, the cells were cultured in an incubator at 37° C. and 5% CO2 for 48 hours. Thereafter, […] of WST-1 (Roche) was added to each well and cultured for 2 hours, and then the absorbance was measured at 450 nm using an ELISA reader (Bio-Rad).
In general terms: Tetrazolium assays rely on reduction of a dye to a coloured formazan, in cell work by metabolically active cells.

In series [2] the test system is pancreatic cancer cell line AsPc-1. Briefly: Cytotoxicity / proliferation analysis (WST-1), AsPc-1. The class given is cell-based, human. The note with it: AsPc-1, FIG. 8. As for the experimental part:
as §1, §2

The test system of series [3] is colon cancer cell line DLD-1. In words: Real-time single cell migration imaging (HoloMonitor M4), DLD-1. In kind it is cell-based, human. The note with it: DLD-1, 24 hours, FIG. 7. As for the experimental part: An effect of a drug on migration of single cells was confirmed using HoloMonitor M4 (Phase Holographic Imaging), real-time cell migration imaging and analysis equipment. All experiments were performed within a 37° C. cell incubator to analyze cell migration while cells were alive for a long time. To prevent water vapor generated during cell imaging for a long time from obstructing the imaging, the experiment was conducted by dividing cells in an m-slide microcopy chamber (Ibidi). In order to analyze migration of single cells, cells (2.5×10^5 cells/mL) to be analyzed were divided to the m-slide microscopy chamber by 0.2 mL and cultured for more than 12 hours. The cells were sufficiently attached to its original shape and then treated with the drug, and a position to be analyzed was specified, and then the cell migration was measured in real time.
The cell migration was measured for 24 hours at five-minute intervals, and migration of 25 cells per group was analyzed. Using the HoloMonitor tracking software, a total distance migrated by the cells during the time measured, a linear distance from the starting point to the arrival point, a rate of migration, and a direction were quantitatively analyzed, and the migration of single cells was visualized with a Wind-Rose plot (FIG. 7).

For series [4], the system named is human colon cancer cell line DLD-1. In words: Lamellipodia formation inhibition (confocal microscope), DLD-1. In kind it is cell-based. The note with it: DLD-1, 6 hours, FIG. 9. As to the method:
(§3) A human colon cancer cell line DLD-1, a human pancreatic cancer cell line AsPc-1, a human melanoma cell line A375P, and normal cells MCF10A were each cultured to 1×10^5 cell density on a 35 mm high-m dish plate (ibid GmbH). The cells attached to the plate were washed with phosphate buffered saline (PBS) and then treated with DMSO or CG-618 dissolved in DMSO for 6 hours. After removing the cell culture medium from the plate, the plate was washed two times with PBS and treated with 4% paraformaldehyde dissolved in PBS at room temperature for 10 minutes to immobilize the cells. The plate was washed with PBS once and then treated with 0.2% Triton X-100 at room temperature for 10 minutes to enhance cell permeability. The plate was washed with PBS and treated with 1% BSA dissolved in PBS at room temperature for 1 hour to block non-specific bonds. In order to check the distribution in cells of filament actin (F-actin), phalloidin bound with Alexa Fluor 488, which was specifically bound with F-actin, was treated at room temperature for 15 minutes. The plate was washed with PBS three times and then treated with 2 mg/mL 4′,6′-diamidino-2-phenylindole (DAPAI) dissolved in PBS for two minutes at room temperature to dye the nucleus. The plate was washed with PBS three times and filled with 1 mL PBS. […] The obtained images were analyzed by an analysis program (LSM Version 3.2 software).

Series [5] has as its system normal cells MCF10A. Briefly: Lamellipodia formation (confocal microscope), MCF10A. The class given is cell-based. The note with it: normal cell line MCF-10A, 6 hours, FIG. 9. As for the experimental part:
as §3

For series [6], the system named is lung cancer cells A549. In words: Trans-well cancer cell migration inhibition, A549. The class given is cell-based. As to conditions: A549, concentration not given, FIG. 3. As for the experimental part: In order to analyze cancer cell migration inhibitory activity of CG-608, CG-609 or CG-618 prepared in Examples 1, 2, or 9, cell migration inhibitory activity was measured using a trans-well by targeting a colon cancer cell line DLD-1 (ATCC-CCL-221), pancreatic cancer cell lines AsPc-1 (ATCC-CCL-1682). CFPAC-1 (ATCC-CCL-1918). Panc-1 (ATCC-CCL-1469), and Miapaca-2 (ATCC-CCL-1420), a skin cancer cell line A375-P (ATCC-CCL-3224), lung cancer cell lines HCC-827 (ATCC-CCL-2868), A549 (ATCC-CCL-185), and NCI-H460 (ATCC-CCL-177), a prostate cancer cell line DU145 (ATCC-HTB-81), a stomach cancer cell line NuGC-3 (JCRB0822), and an ovarian cancer cell line SKOV-3 (ATCC-HTB-77).
First, the number of DLD-1 cells was measured using a hemocytometer in an RPMI medium without FBS. […] After culture, […] of crystal violet (5 mg/mL of 20% […] was added to each well of the 24-well plate and the trans-well was dyed at room temperature for 30 minutes. The dyed trans-well was washed with PBS and non-migrated cells were wiped off with cotton swabs. The prepared sample was photographed with an inverted microscope mounted with a digital camera (TE 300, Nikon. Japan) and then the number of migrated cells was counted. The degree of inhibiting cell migration was calculated by Equation 1 for a group treated with the sample compared to a control group (DMSO). […]

Where only a bound is given, the exact number is not on record here.

For the compound `CC1CCCCN1C(C)COc1ccccc1Cc1ccccc1` (racemic) [CG-618, 1-(1-(2-benzylphenoxy)propan-2-yl)-2-methylpiperidine], in series [1], the “Cytotoxicity in normal cells” value is recorded as “did not exhibit cytotoxicity” and the “Growth of normal cells” value is reported as “did not inhibit”. In addition, the “Growth of cancer cells” value in series [2] is listed as “did not affect the growth”. Also, the “Migration of single cancer cells (real-time imaging)” value in series [3] was “strongly inhibited”. Besides, in series [4], the Formation of lamellipodia entry was “inhibits formation of lamellipodia”. Besides, in series [5], the Formation of lamellipodia entry is given as “has no effect”.

Take `C[C@H](COc1ccccc1Cc1ccccc1)N1CCCC[C@@H]1C` [CG-609, (S)-1-((R)-1-(2-benzylphenoxy)propan-2-yl)-2-methylpiperidine]: in series [6], the “Inhibition of cell migration” value was not below 50%. Moreover, in series [1], the “Cytotoxicity in normal cells” value is reported as “did not exhibit cytotoxicity” and the “Growth of normal cells” value is recorded as “did not inhibit”. Further, the “Growth of cancer cells” value in series [2] was “did not affect the growth”.

The values are drawn from US11945779B2, “Inhibitors of cancer metastasis through inhibiting migration and invasion of cancer cells” (VSpharmtech, priority 2018, dated 2024).
